pIC50: −log10 of the molar value. Read-outs that look alike come from different tables or passages of the source. Each block holds one compound with its values, some of them ahead of it.
Experiments:
CDK12 [1] = target: T1, CDK12 (Homo sapiens, UniProt Q9NYV4); test: CDK12 kinase inhibitory activity assay (33P-ATP filter binding); format: biochemical; settings: kinase reaction 120 minutes, 33P-gamma-ATP; read-out: CDK12 IC50
In short: (§1)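 Compound in 9 concentrations pre-incubated 20 min with kinase and substrate, then ^33P-γ-ATP added and reacted 120 min at room temperature. Phosphorylated substrate captured on filter, washed with 0.75 % phosphoric acid and counted; activity as % of DMSO control, IC50 fitted.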

CDK13 = CDK13 (Homo sapiens, UniProt Q14004); test: CDK13 kinase inhibitory activity assay (33P-ATP filter binding); format: biochemical
In short: as §1

[2] = system: MDA-MB-231 breast cancer cells; test: Proliferation inhibitory activity assay against MDA-MB-231 breast cancer cells; format: cell-based; settings: Homo sapiens, 72 hours, CellTiter Glo, relative IC50
In short: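 Cells grown in L-15 with 10% FBS at 37 °C, 0% CO2, then exposed next day to compounds at 9 concentrations (DMSO vehicle) for 72 h. Viability read by CellTiter Glo luminescence; relative IC50 from dose-response curve fit.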

CDK12 [3] = target: T1, CDK12; test: Cellular CDK12 inhibitory activity assay (Ser2 phosphorylation of RNA polymerase II subunit B1 CTD in MDA-MB-231 cells); format: cell-based; design: using MDA-MB-231 breast cancer cells; endogenous in cells; host or cells: MDA-MB-231; settings: MDA-MB-231 cells, 6 hours treatment; read-out: pRpbl CTD S2 IC50
In short: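 MDA-MB-231 cells in L-15 with 10 % FBS were treated with compound at 9 concentrations for 6 h at 37 °C, 0 % CO2. In-Cell Western read phospho-Ser2 and total RNA polymerase II CTD on a Li-COR Odyssey; IC50 from 4-parameter dose-response fit.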

[4] = kinase reaction 120 minutes, 33P-gamma-ATP, read-out: CDK13 IC50

T1 sequence (Q9NYV4 whole entry, species assumed): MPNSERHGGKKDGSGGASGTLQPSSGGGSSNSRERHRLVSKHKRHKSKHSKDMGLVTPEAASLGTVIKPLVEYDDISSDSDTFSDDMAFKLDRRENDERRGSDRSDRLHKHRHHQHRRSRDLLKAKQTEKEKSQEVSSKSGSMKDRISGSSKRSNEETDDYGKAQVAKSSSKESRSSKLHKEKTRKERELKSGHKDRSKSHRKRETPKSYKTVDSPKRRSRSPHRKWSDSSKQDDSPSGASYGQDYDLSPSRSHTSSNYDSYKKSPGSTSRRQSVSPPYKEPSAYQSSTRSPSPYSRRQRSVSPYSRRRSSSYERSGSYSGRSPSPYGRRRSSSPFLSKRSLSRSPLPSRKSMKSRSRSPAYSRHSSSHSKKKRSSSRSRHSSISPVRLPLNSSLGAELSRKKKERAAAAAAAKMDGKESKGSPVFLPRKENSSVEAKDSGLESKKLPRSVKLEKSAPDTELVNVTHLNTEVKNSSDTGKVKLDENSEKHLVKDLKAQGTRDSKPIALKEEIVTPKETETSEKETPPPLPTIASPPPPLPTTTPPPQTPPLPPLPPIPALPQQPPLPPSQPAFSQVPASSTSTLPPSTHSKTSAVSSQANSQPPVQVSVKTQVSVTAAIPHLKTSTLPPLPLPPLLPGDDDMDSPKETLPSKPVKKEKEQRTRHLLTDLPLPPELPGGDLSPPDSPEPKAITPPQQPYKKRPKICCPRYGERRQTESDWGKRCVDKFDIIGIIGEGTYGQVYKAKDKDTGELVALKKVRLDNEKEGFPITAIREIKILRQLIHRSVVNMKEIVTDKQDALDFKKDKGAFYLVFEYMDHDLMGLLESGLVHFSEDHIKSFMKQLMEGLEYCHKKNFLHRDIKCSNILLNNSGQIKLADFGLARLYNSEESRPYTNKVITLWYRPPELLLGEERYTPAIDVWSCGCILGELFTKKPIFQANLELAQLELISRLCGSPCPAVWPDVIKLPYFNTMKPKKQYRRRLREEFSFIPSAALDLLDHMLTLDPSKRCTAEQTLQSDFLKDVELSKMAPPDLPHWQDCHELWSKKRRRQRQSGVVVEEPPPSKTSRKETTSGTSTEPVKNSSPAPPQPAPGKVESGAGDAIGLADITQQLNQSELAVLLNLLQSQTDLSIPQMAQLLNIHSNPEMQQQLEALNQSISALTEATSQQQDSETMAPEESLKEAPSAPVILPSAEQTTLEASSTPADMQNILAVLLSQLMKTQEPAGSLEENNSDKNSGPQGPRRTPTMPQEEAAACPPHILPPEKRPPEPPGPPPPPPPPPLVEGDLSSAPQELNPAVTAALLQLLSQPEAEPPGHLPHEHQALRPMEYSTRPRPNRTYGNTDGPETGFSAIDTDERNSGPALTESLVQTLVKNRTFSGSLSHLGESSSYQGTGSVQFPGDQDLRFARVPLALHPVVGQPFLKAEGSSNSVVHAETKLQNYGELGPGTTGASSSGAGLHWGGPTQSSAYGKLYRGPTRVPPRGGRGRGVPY
T1 sequence (O75909 whole entry partner, species assumed): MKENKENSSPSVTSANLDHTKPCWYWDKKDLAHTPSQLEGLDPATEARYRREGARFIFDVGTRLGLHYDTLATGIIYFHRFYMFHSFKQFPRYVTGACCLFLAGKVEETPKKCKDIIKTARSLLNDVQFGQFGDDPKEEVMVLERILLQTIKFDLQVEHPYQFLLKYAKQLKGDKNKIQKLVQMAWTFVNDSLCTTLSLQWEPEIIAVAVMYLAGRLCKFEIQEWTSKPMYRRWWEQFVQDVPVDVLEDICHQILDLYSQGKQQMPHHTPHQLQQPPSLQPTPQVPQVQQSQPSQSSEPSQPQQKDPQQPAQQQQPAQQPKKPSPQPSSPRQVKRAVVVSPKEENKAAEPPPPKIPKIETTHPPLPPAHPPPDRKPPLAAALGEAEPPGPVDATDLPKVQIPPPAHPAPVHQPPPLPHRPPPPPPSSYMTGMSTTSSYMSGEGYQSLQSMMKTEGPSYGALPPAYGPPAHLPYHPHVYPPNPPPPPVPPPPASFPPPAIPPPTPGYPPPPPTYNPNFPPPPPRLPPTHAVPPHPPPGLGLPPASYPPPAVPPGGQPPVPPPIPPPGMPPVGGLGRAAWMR
Chain of CDK13 (Q14004 whole entry, species assumed): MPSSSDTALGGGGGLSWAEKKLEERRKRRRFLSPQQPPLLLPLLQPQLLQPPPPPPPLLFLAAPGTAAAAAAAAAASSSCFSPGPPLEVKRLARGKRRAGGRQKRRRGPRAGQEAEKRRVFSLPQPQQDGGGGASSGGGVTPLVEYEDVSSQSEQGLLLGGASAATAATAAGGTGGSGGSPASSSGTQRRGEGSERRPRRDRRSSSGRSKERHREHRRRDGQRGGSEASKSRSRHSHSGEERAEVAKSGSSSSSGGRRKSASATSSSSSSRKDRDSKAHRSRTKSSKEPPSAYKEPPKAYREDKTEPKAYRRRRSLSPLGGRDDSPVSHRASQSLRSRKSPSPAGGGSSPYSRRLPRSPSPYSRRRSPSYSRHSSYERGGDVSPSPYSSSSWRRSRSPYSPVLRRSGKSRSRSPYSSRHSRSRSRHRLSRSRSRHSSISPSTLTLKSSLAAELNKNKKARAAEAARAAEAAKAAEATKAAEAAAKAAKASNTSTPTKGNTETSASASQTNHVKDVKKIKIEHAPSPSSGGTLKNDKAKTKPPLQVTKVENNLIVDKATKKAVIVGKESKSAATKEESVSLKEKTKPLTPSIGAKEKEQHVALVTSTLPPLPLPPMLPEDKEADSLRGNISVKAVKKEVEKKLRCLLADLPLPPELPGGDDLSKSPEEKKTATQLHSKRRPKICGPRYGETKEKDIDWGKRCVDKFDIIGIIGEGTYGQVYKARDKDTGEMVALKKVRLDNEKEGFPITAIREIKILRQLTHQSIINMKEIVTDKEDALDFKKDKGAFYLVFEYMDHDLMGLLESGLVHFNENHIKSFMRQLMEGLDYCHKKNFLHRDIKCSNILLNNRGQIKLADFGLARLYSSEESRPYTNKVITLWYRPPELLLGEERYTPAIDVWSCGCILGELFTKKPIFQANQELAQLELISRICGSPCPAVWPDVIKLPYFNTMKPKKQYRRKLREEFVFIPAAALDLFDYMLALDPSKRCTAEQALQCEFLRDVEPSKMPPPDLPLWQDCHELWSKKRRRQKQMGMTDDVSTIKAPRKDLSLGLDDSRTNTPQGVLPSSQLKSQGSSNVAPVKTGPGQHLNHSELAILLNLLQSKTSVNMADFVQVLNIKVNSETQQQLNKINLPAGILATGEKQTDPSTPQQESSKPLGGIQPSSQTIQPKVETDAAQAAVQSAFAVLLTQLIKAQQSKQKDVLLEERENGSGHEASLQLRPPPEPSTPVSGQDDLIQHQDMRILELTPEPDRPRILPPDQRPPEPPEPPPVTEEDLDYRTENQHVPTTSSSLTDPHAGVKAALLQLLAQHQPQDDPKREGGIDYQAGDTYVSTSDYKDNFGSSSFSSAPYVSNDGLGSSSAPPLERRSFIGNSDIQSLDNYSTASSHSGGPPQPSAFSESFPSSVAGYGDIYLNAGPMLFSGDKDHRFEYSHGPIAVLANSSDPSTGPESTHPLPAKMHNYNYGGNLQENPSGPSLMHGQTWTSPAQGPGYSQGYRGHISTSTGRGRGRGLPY
Chain of CDK13 (O75909 whole entry partner, species assumed): as the sequence (O75909 whole entry partner, species assumed) above

SMILES: FC(F)(F)c1cnc2c(NCc3cc4ccccn4n3)cc(N3CCOCC3)nn12 [Example 86, 6-morpholino-N-(pyrazolo[1,5-a]pyridin-2-ylmethyl)-3-(trifluoromethyl)imidazo [1,2-b]pyridazin-8-amine]
- pIC50 (CDK12 [1]): > 7.00
- pIC50 (CDK13; [4]): > 7.00
- pIC50 [2]: < 6.30
- pIC50 (CDK12 [3]): 5.52 to 6.52

SMILES: NC(=O)N1CCN(c2cc(NCc3nc4ccc(F)c(F)c4[nH]3)c3ncc(C(F)(F)F)n3n2)CC1 [Example 92, 4-(8-(((6,7-difluoro-1H-benzo[d]imidazol-2-yl)methyl)amino)-3-(trifluoromethyl)imidazo[1,2-b]pyridazin-6-yl)piperazine-1-carboxamide]
- pIC50 (CDK12 [1]): > 7.00
- pIC50 (CDK13): > 7.00
- pIC50 [2]: 6.30 to 7.30
- pIC50 (CDK12 [3]): 5.52 to 6.52

SMILES: FC(F)(F)c1cnc2c(NCc3nc4cc(Cl)c(Cl)cc4s3)cc(N3CCOCC3)nn12 [Example 93, N-((5,6-dichlorobenzo[d]thiazol-2-yl)methyl)-6-morpholino-3-(trifluoromethyl)imidazo[1,2-b]pyridazin-8-amine]
- pIC50 (CDK12 [1]): < 6.30
- pIC50 (CDK13; [4]): < 6.30
- pIC50 [2]: 6.30 to 7.30
- pIC50 (CDK12 [3]): 5.52 to 6.52

SMILES: FC(F)(F)c1cnc2c(NCc3nc4cc(Cl)c(Cl)cc4[nH]3)cc(N3CC4CCC(C3)N4)nn12 [Example 94, 6-(3,8-diazabicyclo[3.2.1]octan-3-yl)-N-((5,6-dichloro-1H-benzo[d]imidazol-2-yl)methyl)-3-(trifluoromethyl)imidazo[1,2-b]pyridazin-8-amine]
- pIC50 (CDK12 [1]): > 7.00
- pIC50 (CDK13; [4]): > 7.00
- pIC50 [2]: ≥ 7.30
- pIC50 (CDK12 [3]): > 6.52

SMILES: FC(F)(F)c1cnc2c(NCc3nc4cc(Cl)c(Cl)cc4[nH]3)cc(N3C4CCC3CNC4)nn12 [Example 95, 6-(3,8-diazabicyclo[3.2.1]octan-8-yl)-N-((5,6-dichloro-1H-benzo[d]imidazol-2-yl)methyl)-3-(trifluoromethyl)imidazo[1,2-b]pyridazin-8-amine]
- pIC50 (CDK12 [1]): > 7.00
- pIC50 (CDK13; [4]): > 7.00
- pIC50 [2]: ≥ 7.30
- pIC50 (CDK12 [3]): > 6.52

SMILES: CN1CC2CCC(C1)N2c1cc(NCc2nc3cc(Cl)c(Cl)cc3[nH]2)c2ncc(C(F)(F)F)n2n1 [Example 96, N-((5,6-dichloro-1H-benzo[d]imidazol-2-yl)methyl)-6-(3-methyl-3,8-diazabicyclo[3.2.1]octan-8-yl)-3-(trifluoromethyl)imidazo[1,2-b]pyridazin-8-amine]
- pIC50 (CDK12 [1]): 6.30 to 7.00
- pIC50 (CDK13; [4]): > 7.00
- pIC50 [2]: ≥ 7.30
- pIC50 (CDK12 [3]): > 6.52

SMILES: FC(F)(F)c1cnc2c(NCc3nc4cc(Cl)c(Cl)cc4[nH]3)cc(N3CC4CC(C3)N4)nn12 [Example 97, 6-(3,6-diazabicyclo[3.1.1]heptan-3-yl)-N-((5,6-dichloro-1H-benzo[d]imidazol-2-yl)methyl)-3-(trifluoromethyl)imidazo[1,2-b]pyridazin-8-amine]
- pIC50 (CDK12 [1]): > 7.00
- pIC50 (CDK13; [4]): > 7.00
- pIC50 [2]: ≥ 7.30
- pIC50 (CDK12 [3]): > 6.52

SMILES: CN1C2CC1CN(c1cc(NCc3nc4cc(Cl)c(Cl)cc4[nH]3)c3ncc(C(F)(F)F)n3n1)C2 [Example 98, N-((5,6-dichloro-1H-benzo[d]imidazol-2-yl)methyl)-6-(6-methyl-3,6-diazabicyclo[3.1.1]heptan-3-yl)-3-(trifluoromethyl)imidazo[1,2-b]pyridazin-8-amine]
- pIC50 (CDK12 [1]): > 7.00
- pIC50 (CDK13; [4]): > 7.00
- pIC50 [2]: ≥ 7.30
- pIC50 (CDK12 [3]): > 6.52

SMILES: FC(F)(F)c1cnc2c(NCc3nc4cc(Cl)c(Cl)cc4[nH]3)cc(N3C4CNCC3C4)nn12 [Example 99, 6-(3,6-diazabicyclo[3.1.1]heptan-6-yl)-N-((5,6-dichloro-1H-benzo[d]imidazol-2-yl)methyl)-3-(trifluoromethyl)imidazo[1,2-b]pyridazin-8-amine]
- pIC50 (CDK12 [1]): 6.30 to 7.00
- pIC50 (CDK13; [4]): 6.30 to 7.00
- pIC50 [2]: ≥ 7.30
- pIC50 (CDK12 [3]): > 6.52

SMILES: CN1CC2CC(C1)N2c1cc(NCc2nc3cc(Cl)c(Cl)cc3[nH]2)c2ncc(C(F)(F)F)n2n1 [Example 100, N-((5,6-dichloro-1H-benzo[d]imidazol-2-yl)methyl)-6-(3-methyl-3,6-diazabicyclo[3.1.1]heptan-6-yl)-3-(trifluoromethyl)imidazo[1,2-b]pyridazin-8-amine]
- pIC50 (CDK12 [1]): > 7.00
- pIC50 (CDK13; [4]): > 7.00
- pIC50 [2]: ≥ 7.30
- pIC50 (CDK12 [3]): > 6.52

SMILES: OC1CC2CCC(C1)N2c1cc(NCc2nc3cc(Cl)c(Cl)cc3[nH]2)c2ncc(C(F)(F)F)n2n1 (stereo not shown) [Example 101, 8-(8-(((5,6-dichloro-1H-benzo[d]imidazol-2-yl)methyl)amino)-3-(trifluoromethyl)imidazo[1,2-b]pyridazin-6-yl)-8-azabicyclo[3.2.1]octan-3-ol]
- pIC50 (CDK12 [1]): 6.30 to 7.00
- pIC50 (CDK13; [4]): > 7.00
- pIC50 [2]: ≥ 7.30
- pIC50 (CDK12 [3]): > 6.52

SMILES: O=C(CO)NC1CN(c2cc(NCc3nc4cc(Cl)c(Cl)cc4[nH]3)c3ncc(C(F)(F)F)n3n2)C1 [Example 103, N-(1-(8-(((5,6-dichloro-1H-benzo[d]imidazol-2-yl)methyl)amino)-3-(trifluoromethyl)imidazo[1,2-b]pyridazin-6-yl)azetidin-3-yl)-2-hydroxyacetamide]
- pIC50 (CDK12 [1]): > 7.00
- pIC50 (CDK13; [4]): > 7.00
- pIC50 [2]: 6.30 to 7.30
- pIC50 (CDK12 [3]): 5.52 to 6.52

SMILES: CN1CCN(c2cc(NCc3nc4cc(F)c(F)cc4[nH]3)c3ncc(C(F)(F)F)n3n2)CC1 [Example 110, N-((5,6-difluoro-1H-benzo[d]imidazol-2-yl)methyl)-6-(4-methylpiperazin-1-yl)-3-(trifluoromethyl)imidazo[1,2-b]pyridazin-8-amine]
- pIC50 (CDK12 [1]): > 7.00
- pIC50 (CDK13; [4]): > 7.00
- pIC50 [2]: ≥ 7.30
- pIC50 (CDK12 [3]): > 6.52

Further lines, results first:

- pIC50 (CDK12 [1]): > 7.00
- pIC50 (CDK13): > 7.00
- pIC50 [2]: 6.30 to 7.30
- pIC50 (CDK12 [3]): 5.52 to 6.52
SMILES: FC(F)(F)c1cnc2c(NCc3cc4ncccc4[nH]3)cc(N3CCOCC3)nn12 [Example 87, N-((1H-pyrrolo[3,2-b]pyridin-2-yl)methyl)-6-morpholino-3-(trifluoromethyl)imidazo[1,2-b]pyridazin-8-amine]

- pIC50 (CDK12 [1]): > 7.00
- pIC50 (CDK13): > 7.00
- pIC50 [2]: 6.30 to 7.30
- pIC50 (CDK12 [3]): 5.52 to 6.52
SMILES: Cc1cc(C)n2cc(CNc3cc(N4CCOCC4)nn4c(C(F)(F)F)cnc34)nc2n1 [Example 88, N-((5,7-dimethylimidazo[1,2-a]pyrimidin-2-yl)methyl)-6-morpholino-3-(trifluoromethyl)imidazo[1,2-b]pyridazin-8-amine]

- pIC50 (CDK12 [1]): > 7.00
- pIC50 (CDK13): > 7.00
- pIC50 [2]: < 6.30
- pIC50 (CDK12 [3]): < 5.52
SMILES: FC(F)(F)c1cnc2c(NCc3cc4ncccn4n3)cc(N3CCOCC3)nn12 [Example 89, 6-morpholino-N-(pyrazolo[1,5-a]pyrimidin-2-ylmethyl)-3-(trifluoromethyl)imidazo[1,2-b]pyridazin-8-amine]

- pIC50 (CDK12 [1]): < 6.30
- pIC50 (CDK13; [4]): < 6.30
- pIC50 [2]: 6.30 to 7.30
- pIC50 (CDK12 [3]): 5.52 to 6.52
SMILES: FC(F)(F)c1cnc2c(NCc3nc4cc(Cl)c(Cl)cc4o3)cc(N3CCOCC3)nn12 [Example 91, N-((5,6-dichlorobenzo[d]oxazol-2-yl)methyl)-6-morpholino-3-(trifluoromethyl)imidazo[1,2-b]pyridazin-8-amine]

- pIC50 (CDK12 [1]): > 7.00
- pIC50 (CDK13; [4]): > 7.00
- pIC50 [2]: ≥ 7.30
- pIC50 (CDK12 [3]): > 6.52
SMILES: O=C(CO)N1CCN(c2cc(NCc3nc4cc(Cl)c(Cl)cc4[nH]3)c3ncc(C(F)(F)F)n3n2)CC1 [Example 102, 1-(4-(8-(((5,6-dichloro-1H-benzo[d]imidazol-2-yl)methyl)amino)-3-(trifluoromethyl)imidazo[1,2-b]pyridazin-6-yl)piperazin-1-yl)-2-hydroxyethan-1-one]

- pIC50 (CDK12 [1]): > 7.00
- pIC50 (CDK13; [4]): > 7.00
- pIC50 [2]: ≥ 7.30
- pIC50 (CDK12 [3]): > 6.52
SMILES: Fc1cc2nc(CNc3cc(N4CCNCC4)nn4c(C(F)(F)F)cnc34)[nH]c2cc1F [Example 109]

- pIC50 (CDK12 [1]): > 7.00
- pIC50 (CDK13; [4]): > 7.00
- pIC50 [2]: ≥ 7.30
- pIC50 (CDK12 [3]): > 6.52
SMILES: NC1CCN(c2cc(NCc3nc4cc(F)c(F)cc4[nH]3)c3ncc(C(F)(F)F)n3n2)CC1 [Example 111, 6-(4-aminopiperidin-1-yl)-N-((5,6-difluoro-1H-benzo[d]imidazol-2-yl)methyl)-3-(trifluoromethyl)imidazo[1,2-b]pyridazin-8-amine]

- pIC50 (CDK12 [1]): > 7.00
- pIC50 (CDK13; [4]): > 7.00
- pIC50 [2]: ≥ 7.30
- pIC50 (CDK12 [3]): > 6.52
SMILES: C[C@@H]1CN(c2cc(NCc3nc4cc(F)c(F)cc4[nH]3)c3ncc(C(F)(F)F)n3n2)C[C@H](C)N1 [Example 112, N-((5,6-difluoro-1H-benzo[d]imidazol-2-yl)methyl)-6-((3S, 5R)-3,5-dimethylpiperazin-1-yl)-3-(trifluoromethyl)imidazo[1,2-b]pyridazin-8-amine]

- pIC50 (CDK12 [1]): > 7.00
- pIC50 (CDK13; [4]): > 7.00
- pIC50 [2]: ≥ 7.30
- pIC50 (CDK12 [3]): > 6.52
SMILES: Nc1ncc(-c2cc(NCc3nc4cc(F)c(F)cc4[nH]3)c3ncc(C(F)(F)F)n3n2)cn1 [Example 113, 6-(2-aminopyrimidin-5-yl)-N-((5,6-difluoro-1H-benzo[d]imidazol-2-yl)methyl)-3-(trifluoromethyl)imidazo[1,2-b]pyridazin-8-amine]
